Source: patent US12116371B2, “Substituted pyridines as irreversible inhibitors of menin-MLL interaction” (BIOMEA FUSION, INC., priority 2018, dated 2024)
Read-outs that look alike come from different tables or passages of the source.

Columns and labels:
Assay type in all cases: cell-based
SK-LU-1 cells = assay: Proliferation assay, cells in adhesion; details: for IC50: Homo sapiens
Panc 10.05 cells = assay: Proliferation assay, cells in adhesion; details: for IC50: Homo sapiens
NCI-H23 cells = assay: Proliferation assay, cells in adhesion; details: for IC50: Homo sapiens
MIAPaCa-2/AMG510 cells = assay: Proliferation assay, cells in adhesion; details: for IC50: Homo sapiens
KG-1 cells = assay: Long term proliferation assay, Cell Titer-Glo read-out; details: for IC50: Homo sapiens
Protocol: (§1) Compounds of invention are tested in the 5 suspension lines by 14-day long-term proliferation assay.
(§2) The compound is tested in 10-pt dose titration (client will determine the starting concentration and the dilution scheme) and the final DMSO concentration is kept at 0.2%.
(§3) On Day 0, in a flat bottom 96-well plate, add 100 μL of cells per well at the densities optimized. Prepare compounds in DMSO at 500× final concentration. Dilute the compounds with DMSO at the dilution. Dilute the compounds in media at 3× final concentration. Add 50 μL of compound or DMSO at 3× final concentration to each well. Final volume in each well is 150 μL, and final concentration of DMSO is 0.2%. Also include 3 untreated control wells, by adding 50 μL of media alone. Incubate plates for 96 hours.
(§4) To do this take the total viable cell count calculated using step: • 1. Take the average of the replicates for each dose in order to be used in splitting the cells. • 2. Use a 96 well V-bottom plate to spin down the cells to remove old media and compound to split the cells. • 3. Based on the split ratio place the proper amount of media and cells into the V-bottom plate, and spin the plate at 1100 rpm for 5 minutes. • 4. Following the spin remove the media, careful not to disturb the cell pellet. Re-suspend pellet in 100 μL fresh media, and add to a new 96-well flat bottom plate. • 5. Add fresh compound, in the same manner as Step 3). • 6. Incubate plates for 72 hours. Repeat steps 5)-10) on Day 7. • 7. Incubate plates for 96 hours. Repeat Step 5)-10) on Day 11. • 8. Incubate 72 hours and repeat step 5) to take a final count. • 9. Data Analysis
(§5) To calculate growth for days 4, 7, 11, and 14: • 1. Calculate the split factor for day 4 to 7, day 7 to 11, and day 11-14. The split factor is the viable cells/mL on Day X (either 4, 7 or 11) divided by the density the cells are being split back to. • 2. For growth of cells from day 4 to 7, multiply the day 7 viable cells/mL density by the split factor from day 4. • 3. For growth of cells from day 7 to 11, multiply the day 11 viable cells/mL density by the days 4, and 7 split factors. • 4. For growth of cells from Day 11 to 14, multiply the Day 14 viable cells/mL density by the days 4, 7, and 11 split factors. • 5. Plot growth on semi-log chart (viable cells/mL on Y axis, in log, and days on X axis). • 6. The growth inhibition was calculated with the formula ((untreated cell numbers-treated cell numbers)/untreated cell)). • 7. Calculate the IC50 for each compound in each line using XLFit (Sigmoidal Dose-Response Model, y=(Bottom+((Top-Bottom)/(1+((IC50/×)^Hill))))).

OCI-AML-3 cells = assay: as above; details: for IC50: Homo sapiens; for % max: OCI-AML3
Protocol: as §1, §2, §3, §4, §5

Question: `C=CC(=O)NC1CCCN(Cc2ccnc(C(=O)Nc3ccc(-c4cc5c(N6CCOCC6)ncnc5[nH]4)cc3)c2)C1` (stereo not shown) [Compound 10] was tested. Which IC50 (SK-LU-1 cells; SK-LU-1, SK-LU-1, T4, read-out: IC50) did it give?
Answer: The IC50 was 0.68 µM.

Question: What about the IC50 (SK-LU-1 cells; SK-LU-1, SK-LU-1, T7, read-out: IC50) of the same molecule?
Answer: The IC50 was 0.59 µM.

Question: And the IC50 (SK-LU-1 cells; SK-LU-1, SK-LU-1, T7, read-out: pIC50 (converted))?
Answer: Its IC50 is 0.589 µM.

Question: And the IC50 (SK-LU-1 cells; SK-LU-1, SK-LU-1, T11, read-out: IC50)?
Answer: The IC50 was 0.37 µM.

Question: And the IC50 (SK-LU-1 cells; SK-LU-1, SK-LU-1, T11, read-out: pIC50 (converted))?
Answer: Its IC50 is 0.372 µM.

Question: What about the “% max” value (SK-LU-1 cells; SK-LU-1, T4) of the same molecule?
Answer: Its value is 82%.

Question: What about the “% max” value (SK-LU-1 cells; SK-LU-1, T7) of the same molecule?
Answer: Its value is 95%.

Question: And the “% max” value (SK-LU-1 cells; SK-LU-1, T11)?
Answer: Its value is 96%.

Question: What about the IC50 (Panc 10.05 cells; Panc1005, Panc 10.05, T4, read-out: IC50) of the same molecule?
Answer: Its IC50 is 0.79 µM.

Question: What about the IC50 (Panc 10.05 cells; Panc1005, Panc 10.05, T4, read-out: pIC50 (converted)) of the same molecule?
Answer: Its IC50 is 0.794 µM.

Question: And the IC50 (Panc 10.05 cells; Panc1005, Panc 10.05, T7, read-out: IC50)?
Answer: The IC50 was 0.49 µM.

Question: And the IC50 (Panc 10.05 cells; Panc1005, Panc 10.05, T7, read-out: pIC50 (converted))?
Answer: The IC50 was 0.49 µM.

Question: What about the IC50 (Panc 10.05 cells; Panc1005, Panc 10.05, T11, read-out: IC50) of the same molecule?
Answer: Its IC50 is 0.28 µM.

Question: And the IC50 (Panc 10.05 cells; Panc1005, Panc 10.05, T11, read-out: pIC50 (converted))?
Answer: The IC50 was 0.282 µM.

Question: And the “% max” value (Panc 10.05 cells; Panc 10.05, T4)?
Answer: Its value is 84%.

Question: What about the “% max” value (Panc 10.05 cells; Panc 10.05, T7) of the same molecule?
Answer: Its value is 97%.

Question: What about the “% max” value (Panc 10.05 cells; Panc 10.05, T11) of the same molecule?
Answer: Its value is 99%.

Question: What about the IC50 (NCI-H23 cells; NCI-H23, NCI-H23, T4, read-out: IC50) of the same molecule?
Answer: Its IC50 is 0.35 µM.

Question: And the IC50 (NCI-H23 cells; NCI-H23, NCI-H23, T4, read-out: pIC50 (converted))?
Answer: The IC50 was 0.355 µM.

Question: What about the IC50 (NCI-H23 cells; NCI-H23, NCI-H23, T7, read-out: IC50) of the same molecule?
Answer: Its IC50 is 0.2 µM.

Question: And the IC50 (NCI-H23 cells; NCI-H23, NCI-H23, T7, read-out: pIC50 (converted))?
Answer: The IC50 was 0.263 µM.

Question: What about the IC50 (NCI-H23 cells; NCI-H23, NCI-H23, T11, read-out: IC50) of the same molecule?
Answer: The IC50 was 0.19 µM.

Question: And the IC50 (NCI-H23 cells; NCI-H23, NCI-H23, T11, read-out: pIC50 (converted))?
Answer: The IC50 was 0.191 µM.

Question: And the “% max” value (NCI-H23 cells; NCI-H23, T4)?
Answer: Its value is 92%.

Question: And the “% max” value (NCI-H23 cells; NCI-H23, T7)?
Answer: Its value is 96%.

Question: And the “% max” value (NCI-H23 cells; NCI-H23, T11)?
Answer: Its value is 98%.

Question: And the IC50 (MIAPaCa-2/AMG510 cells; MIA PaCa-2, MIAPaCa-2/AMG510, T4, read-out: IC50)?
Answer: Its IC50 is 0.3 µM.

Question: What about the IC50 (MIAPaCa-2/AMG510 cells; MIA PaCa-2, MIAPaCa-2/AMG510, T4, read-out: pIC50 (converted)) of the same molecule?
Answer: The IC50 was 0.295 µM.

Question: And the IC50 (MIAPaCa-2/AMG510 cells; MIA PaCa-2, MIAPaCa-2/AMG510, T7, read-out: IC50)?
Answer: Its IC50 is 0.17 µM.

Question: And the IC50 (MIAPaCa-2/AMG510 cells; MIA PaCa-2, MIAPaCa-2/AMG510, T7, read-out: pIC50 (converted))?
Answer: The IC50 was 0.166 µM.

Question: And the IC50 (MIAPaCa-2/AMG510 cells; MIAPaCa-2/AMG510, T11, read-out: IC50)?
Answer: Its IC50 is 0.15 µM.

Question: And the IC50 (MIAPaCa-2/AMG510 cells; MIAPaCa-2/AMG510, T11, read-out: pIC50 (converted))?
Answer: The IC50 was 0.151 µM.

Question: What about the “% max” value (MIAPaCa-2/AMG510 cells; MIAPaCa-2/AMG510, T4) of the same molecule?
Answer: The value was 92%.

Question: And the “% max” value (MIAPaCa-2/AMG510 cells; MIAPaCa-2/AMG510, T7)?
Answer: The value was 98%.

Question: What about the “% max” value (MIAPaCa-2/AMG510 cells; MIAPaCa-2/AMG510, T11) of the same molecule?
Answer: The value was 99%.

Question: What about the IC50 (KG-1 cells; 96 h, Day 4, Cell Titer-Glo, read-out: Day 4 IC50) of the same molecule?
Answer: Its IC50 is 0.47 µM.

Question: And the IC50 (KG-1 cells; 168 h, Day 7, Cell Titer-Glo, read-out: Day 7 IC50)?
Answer: The IC50 was 0.33 µM.

Question: What about the IC50 (KG-1 cells; 264 h, Day 11, Cell Titer-Glo, read-out: Day 11 IC50) of the same molecule?
Answer: The IC50 was 0.27 µM.

Question: And the IC50 (KG-1 cells; 336 h, Day 14, Cell Titer-Glo, read-out: Day 14 IC50)?
Answer: The IC50 was 0.24 µM.

Question: And the IC50 (KG-1 cells; T4, CellTiter-Glo, read-out: IC50)?
Answer: Its IC50 is 0.47 µM.

Question: What about the IC50 (KG-1 cells; T4, CellTiter-Glo, read-out: pIC50 (converted)) of the same molecule?
Answer: Its IC50 is 0.468 µM.

Question: What about the IC50 (KG-1 cells; T11, CellTiter-Glo, read-out: IC50) of the same molecule?
Answer: The IC50 was 0.27 µM.

Question: What about the IC50 (KG-1 cells; T11, CellTiter-Glo, read-out: pIC50 (converted)) of the same molecule?
Answer: The IC50 was 0.269 µM.

Question: What about the “% max” value (KG-1 cells; T4, CellTiter-Glo) of the same molecule?
Answer: Its value is 99%.

Question: What about the “% max” value (KG-1 cells; T11, CellTiter-Glo) of the same molecule?
Answer: Its value is 99%.

Question: And the IC50 (OCI-AML-3 cells; OCI-AML-3, 96 h, OCI-AML-3, Day 4, Cell Titer-Glo, read-out: Day 4 IC50)?
Answer: The IC50 was 0.19 µM.

Question: And the IC50 (OCI-AML-3 cells; OCI-AML-3, 168 h, OCI-AML-3, Day 7, Cell Titer-Glo, read-out: Day 7 IC50)?
Answer: The IC50 was 0.14 µM.

Question: What about the IC50 (OCI-AML-3 cells; OCI-AML-3, 264 h, OCI-AML-3, Day 11, Cell Titer-Glo, read-out: Day 11 IC50) of the same molecule?
Answer: The IC50 was 0.1 µM.

Question: And the IC50 (OCI-AML-3 cells; OCI-AML-3, 336 h, OCI-AML-3, Day 14, Cell Titer-Glo, read-out: Day 14 IC50)?
Answer: The IC50 was 0.12 µM.

Question: What about the IC50 (OCI-AML-3 cells; OCI-AML-3, OCI-AML3, T4, CellTiter-Glo, read-out: IC50) of the same molecule?
Answer: Its IC50 is 0.19 µM.

Question: And the IC50 (OCI-AML-3 cells; OCI-AML-3, OCI-AML3, T4, CellTiter-Glo, read-out: pIC50 (converted))?
Answer: Its IC50 is 0.191 µM.

Question: And the IC50 (OCI-AML-3 cells; OCI-AML-3, OCI-AML3, T11, CellTiter-Glo, read-out: IC50)?
Answer: The IC50 was 0.1 µM.

Question: What about the IC50 (OCI-AML-3 cells; OCI-AML-3, OCI-AML3, T11, CellTiter-Glo, read-out: pIC50 (converted)) of the same molecule?
Answer: The IC50 was 0.1 µM.

Question: And the “% max” value (OCI-AML-3 cells; T4, CellTiter-Glo)?
Answer: The value was 99%.

Question: And the “% max” value (OCI-AML-3 cells; T11, CellTiter-Glo)?
Answer: The value was 99%.
